Experimental data taken from ChEMBL document CHEMBL3621069 (Bioorg Med Chem Lett, 2015).
≈ marks a conversion by molar mass, not a printed value.

Columns and labels:
[1] = biological target: T1, Tyrosine-protein kinase SYK (Homo sapiens, UniProt P43405); assay: Inhibition of purified full-length human SYK pre-incubated for 30 mins at room temperature before Ulight-TK peptide substrate addition and measured 1 hr after substrate addition by cell free kinase assay
[2] = Kinetic solubility of the compound; format: physicochemical; conditions: read-out: Kinetic_solubility
[3] = Apparent permeability in human Caco2 cells; format: ADME, cell-based; conditions: Caco-2
Cytochrome P450 3A4 = Cytochrome P450 3A4 (Homo sapiens, UniProt P08684); assay: Inhibition of CYP3A4 (unknown origin); format: ADME
Chain of Cytochrome P450 3A4 (P08684 whole entry): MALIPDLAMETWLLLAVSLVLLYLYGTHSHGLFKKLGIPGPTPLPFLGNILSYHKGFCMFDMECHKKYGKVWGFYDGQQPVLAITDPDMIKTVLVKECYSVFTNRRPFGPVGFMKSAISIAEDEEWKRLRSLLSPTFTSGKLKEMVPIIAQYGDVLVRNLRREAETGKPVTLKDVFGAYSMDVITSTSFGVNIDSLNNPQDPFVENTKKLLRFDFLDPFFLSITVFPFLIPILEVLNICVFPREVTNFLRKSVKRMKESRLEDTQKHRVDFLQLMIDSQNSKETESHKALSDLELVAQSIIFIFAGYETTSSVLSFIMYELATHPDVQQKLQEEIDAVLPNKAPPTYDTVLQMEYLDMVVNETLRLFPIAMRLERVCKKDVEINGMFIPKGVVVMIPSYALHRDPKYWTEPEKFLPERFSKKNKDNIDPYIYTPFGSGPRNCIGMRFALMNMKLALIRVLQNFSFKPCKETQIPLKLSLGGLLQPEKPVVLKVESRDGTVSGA

[4] = Oral bioavailability in Sprague-Dawley rat at 10 mg/kg; format: ADME, organism-based; conditions: in vivo
[5] = biological target: T1, Tyrosine-protein kinase SYK; assay: Inhibition of SYK-mediated TNFalpha production in human IgG-stimulated human THP1 cells incubated for 18 hrs by ELISA method; format: cell-based, THP-1
[6] = Clearance in Sprague-Dawley rat at 10 mg/kg, po; format: ADME, organism-based; conditions: in vivo
[7] = Terminal half life in Sprague-Dawley rat at 10 mg/kg, po; format: ADME, organism-based; conditions: in vivo, read-out: beta t1/2 (converted)
[8] = AUClast in Sprague-Dawley rat at 10 mg/kg; format: ADME, organism-based; design: dose 10 mg/kg, time 0 - last; conditions: in vivo
[9] = biological target: T2, Tyrosine-protein kinase JAK3 (Homo sapiens, UniProt P52333); assay: Inhibition of JAK3 (unknown origin) pre-incubated for 30 mins at room temperature before substrate addition and measured 1 hr after substrate addition by cell free kinase assay
T2 sequence (P52333 whole entry): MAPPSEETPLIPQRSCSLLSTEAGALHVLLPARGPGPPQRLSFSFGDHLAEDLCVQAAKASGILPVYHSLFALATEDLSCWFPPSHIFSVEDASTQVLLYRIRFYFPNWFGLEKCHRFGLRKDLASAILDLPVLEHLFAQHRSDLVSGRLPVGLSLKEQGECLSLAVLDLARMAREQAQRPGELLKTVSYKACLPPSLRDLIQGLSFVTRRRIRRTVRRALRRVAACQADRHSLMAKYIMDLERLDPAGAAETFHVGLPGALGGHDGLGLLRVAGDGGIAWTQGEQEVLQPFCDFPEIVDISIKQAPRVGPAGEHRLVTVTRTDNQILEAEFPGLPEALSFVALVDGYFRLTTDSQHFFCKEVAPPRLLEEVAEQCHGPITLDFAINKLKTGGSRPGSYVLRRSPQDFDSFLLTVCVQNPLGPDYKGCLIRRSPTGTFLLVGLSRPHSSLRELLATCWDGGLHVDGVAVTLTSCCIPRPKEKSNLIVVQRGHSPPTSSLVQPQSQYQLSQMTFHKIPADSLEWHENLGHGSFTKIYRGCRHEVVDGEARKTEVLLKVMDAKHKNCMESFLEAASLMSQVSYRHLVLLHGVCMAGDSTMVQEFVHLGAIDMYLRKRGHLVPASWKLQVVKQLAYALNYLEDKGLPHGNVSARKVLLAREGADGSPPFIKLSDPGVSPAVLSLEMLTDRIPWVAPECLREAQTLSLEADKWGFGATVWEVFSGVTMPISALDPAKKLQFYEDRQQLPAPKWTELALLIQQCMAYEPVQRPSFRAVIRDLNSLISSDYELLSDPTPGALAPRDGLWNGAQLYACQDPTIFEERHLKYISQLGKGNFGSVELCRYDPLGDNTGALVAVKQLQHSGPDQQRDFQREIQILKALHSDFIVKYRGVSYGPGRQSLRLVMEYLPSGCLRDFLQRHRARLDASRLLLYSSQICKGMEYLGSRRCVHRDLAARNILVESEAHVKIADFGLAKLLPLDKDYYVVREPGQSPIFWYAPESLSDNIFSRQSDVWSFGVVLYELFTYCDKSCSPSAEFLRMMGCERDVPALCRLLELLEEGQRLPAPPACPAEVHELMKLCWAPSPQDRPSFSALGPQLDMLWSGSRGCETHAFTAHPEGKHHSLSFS

Rattus norvegicus = assay: Volume of distribution at steady state in Sprague-Dawley rat at 10 mg/kg, po; format: ADME, organism-based; conditions: in vivo
[10] = biological target: T3, Tyrosine-protein kinase ZAP-70 (Homo sapiens, UniProt P43403); assay: Inhibition of purified full-length human ZAP70 pre-incubated for 30 mins at room temperature before UlighTM-PolyGT peptide substrate addition and measured 1 hr after substrate addition by cell free kinase assay
T3 sequence (P43403 whole entry): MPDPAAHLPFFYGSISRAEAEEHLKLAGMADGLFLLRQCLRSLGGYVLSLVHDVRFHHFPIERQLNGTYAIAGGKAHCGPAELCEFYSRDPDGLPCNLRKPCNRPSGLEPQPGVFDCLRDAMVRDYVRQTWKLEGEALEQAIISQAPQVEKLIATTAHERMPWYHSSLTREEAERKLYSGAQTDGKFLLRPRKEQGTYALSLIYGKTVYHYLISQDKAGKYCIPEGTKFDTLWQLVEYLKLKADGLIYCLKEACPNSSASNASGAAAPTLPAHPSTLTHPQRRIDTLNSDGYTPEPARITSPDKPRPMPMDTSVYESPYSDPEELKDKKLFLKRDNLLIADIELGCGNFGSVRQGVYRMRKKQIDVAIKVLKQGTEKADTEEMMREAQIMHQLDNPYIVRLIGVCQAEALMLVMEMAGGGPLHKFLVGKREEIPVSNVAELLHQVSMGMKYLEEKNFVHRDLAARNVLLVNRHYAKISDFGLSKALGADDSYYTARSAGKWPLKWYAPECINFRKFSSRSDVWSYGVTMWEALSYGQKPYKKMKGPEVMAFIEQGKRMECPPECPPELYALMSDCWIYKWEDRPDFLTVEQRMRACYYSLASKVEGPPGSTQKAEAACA

[11] = Apparent permeability from apical to basolateral side in human Caco2 cells; format: ADME, cell-based; conditions: Caco-2
[12] = biological target: Proto-oncogene tyrosine-protein kinase receptor Ret (Homo sapiens, UniProt P07949); assay: Inhibition of human RET pre-incubated for 30 mins at room temperature before substrate addition and measured 1 hr after substrate addition by cell free kinase assay
Chain of Proto-oncogene tyrosine-protein kinase receptor Ret (P07949 whole entry): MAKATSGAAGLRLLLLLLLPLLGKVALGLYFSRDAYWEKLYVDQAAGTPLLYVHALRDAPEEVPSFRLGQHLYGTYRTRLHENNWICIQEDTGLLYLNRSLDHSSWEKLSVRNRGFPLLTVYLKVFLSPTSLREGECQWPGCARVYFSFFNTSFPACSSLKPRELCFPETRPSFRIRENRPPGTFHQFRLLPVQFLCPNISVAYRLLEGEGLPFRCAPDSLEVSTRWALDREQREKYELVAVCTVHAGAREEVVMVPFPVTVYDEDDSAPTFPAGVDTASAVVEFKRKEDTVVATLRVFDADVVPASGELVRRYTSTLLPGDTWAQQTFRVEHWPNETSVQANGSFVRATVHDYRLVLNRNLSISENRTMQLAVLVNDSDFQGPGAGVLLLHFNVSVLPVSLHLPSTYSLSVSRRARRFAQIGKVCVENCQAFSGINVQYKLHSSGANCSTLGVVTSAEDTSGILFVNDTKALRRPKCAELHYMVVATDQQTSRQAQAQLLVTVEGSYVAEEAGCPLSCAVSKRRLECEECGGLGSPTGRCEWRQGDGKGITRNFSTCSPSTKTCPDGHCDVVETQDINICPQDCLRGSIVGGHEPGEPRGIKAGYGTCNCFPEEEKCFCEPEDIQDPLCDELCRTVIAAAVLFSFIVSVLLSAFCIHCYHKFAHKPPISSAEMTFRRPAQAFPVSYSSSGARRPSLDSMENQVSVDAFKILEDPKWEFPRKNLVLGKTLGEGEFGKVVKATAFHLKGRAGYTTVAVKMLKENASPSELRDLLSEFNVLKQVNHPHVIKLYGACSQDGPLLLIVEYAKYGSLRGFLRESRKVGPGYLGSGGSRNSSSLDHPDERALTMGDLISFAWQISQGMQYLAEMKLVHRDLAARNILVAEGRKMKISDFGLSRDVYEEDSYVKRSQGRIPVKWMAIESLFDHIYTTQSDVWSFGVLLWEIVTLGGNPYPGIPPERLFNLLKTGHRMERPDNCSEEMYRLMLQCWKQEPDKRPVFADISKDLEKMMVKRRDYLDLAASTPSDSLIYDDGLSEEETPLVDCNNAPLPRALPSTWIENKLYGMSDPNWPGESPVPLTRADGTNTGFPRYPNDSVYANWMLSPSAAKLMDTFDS

[13] = Stability in human liver microsomes; format: ADME; conditions: read-out: Stability
Plasma = assay: Unbound fraction in human plasma; format: ADME, cell-free
[14] = Apparent permeability from basolateral to apical side in human Caco2 cells; format: ADME, cell-based; conditions: Caco-2
[15] = Inhibition of CYP450 (unknown origin); format: ADME, Homo sapiens

Row | Structure (SMILES) | IC50 [1] [nM] | other results
1 | Cc1nn(-c2nc(Nc3ccc4c(cnn4C)c3)ncc2F)cc1CN1CC(O)C1 | 326 | –
2 | Cc1cc(C)cc(Nc2nccc(-n3cc(C)c(CN4CCC(F)(F)CC4)c3)n2)c1 | 307 | –
3 | COc1cc(Nc2nccc(-n3cc(C)c(CN4CC[C@@H](O)C4)c3)n2)cc(OC)c1OCC(=O)N1CCCC1 | 101 | –
4 | Cc1cc(C)cc(Nc2nccc(-n3cc(C)c(CN(C)C)c3)n2)c1 | 6.2 | –
5 | Cc1cc(C)cc(Nc2nccc(-n3cc(CN4CC(O)C4)c(C4CC4)c3)n2)c1 | 1.9 | –
6 | Cc1cc(C)cc(Nc2nccc(-n3cc(CN4CCC(O)CC4)c(C)n3)n2)c1 | 39.1 | –
7 | Cc1cn(-c2ccnc(Nc3cc(C)c(OCCO)c(C)c3)n2)cc1CN1CC[C@@H](O)C1 | 17.3 | solubility kinetic [2]: 120 µM (≈ 52.5 µg/mL); Papp [3]: 10.3 ×10⁻⁶ cm/s; IC50 (Cytochrome P450 3A4): > 10000 nM
8 | Cc1cc(C)cc(Nc2nccc(-n3cc(C)c(CN4CC[C@H](C(=O)O)C4)c3)n2)c1 | 17.8 | –
9 | COc1cc(Nc2nccc(-n3cc(C)c(CN(C)C)c3)n2)cc(OC)c1OC | 71.8 | –
10 | Cc1nn(-c2ccnc(Nc3ccc4c(c3)CCN4C)n2)cc1CN1CC(O)C1 | 20.4 | –
11 | Cc1nn(-c2ccnc(Nc3ccc4c(ccn4C)c3)n2)cc1CN1CC(O)C1 | 36.6 | –
12 | COc1cc(Nc2nccc(-n3cc(C)c(CN4CC(O)C4)c3)n2)cc(OC)c1OC | 38 | –
13 | Cc1cn(-c2ccnc(Nc3cc(C)c(OCCN4CCCC4)c(C)c3)n2)cc1CN1CC(O)C1 | 11.5 | –
14 | Cc1cn(-c2ccnc(Nc3cc(C)c(OCC(=O)N4CCCC4)c(C)c3)n2)cc1CN1CC[C@@H](O)C1 | 14.4 | –
15 | Cc1cn(-c2ccnc(Nc3cc(C)c(OS(C)(=O)=O)c(C)c3)n2)cc1CN1CC[C@@H](O)C1 | 7.9 | –
16 | Cc1cc(C)cc(Nc2nccc(-n3cc(C)c(CN4CC(O)C4)c3)n2)c1 | 5.4 | –
17 | Cc1nn(-c2nc(Nc3ccc4c(c3)c(C#N)nn4C)ncc2F)cc1CN1CC(O)C1 | 5990 | –
18 | Cc1cn(-c2ccnc(Nc3cc(C)c(OS(C)(=O)=O)c(C)c3)n2)cc1CN1CC(O)C1 | 6.3 | –

Row | Structure (SMILES) | IC50 [1] [nM] | other results
19 | Cc1cn(-c2ccnc(Nc3cc(C)c(Oc4ccccc4)c(C)c3)n2)cc1CN1CC[C@@H](O)C1 | 377 | –
20 | Cc1cn(-c2ccnc(Nc3cc(C)c(OCC(=O)N4CCCC4)c(C)c3)n2)cc1CN1CC(O)C1 | 7.3 | –
21 | COc1cc(Nc2nccc(-n3cc(C)c(CN4CC(O)C4)c3)n2)cc(OC)c1OCC(=O)N1CCCC1 | 61.4 | –
22 | Cc1nn(-c2ccnc(Nc3ccccc3)n2)cc1CN1CC[C@@H](O)C1 | 871 | –
23 | Cc1nn(-c2ccnc(Nc3ccc4c(cnn4C4CC4)c3)n2)cc1CN1CC(O)C1 | 8 | –
24 | Cc1cc(Nc2nccc(-n3cc(CN4CC(O)C4)c(C)n3)n2)cc(C)c1OCCN1CCCC1 | 8.9 | –
25 | Cc1cn(-c2ccnc(Nc3cc(C)c(Oc4ccccc4)c(C)c3)n2)cc1CN1CC(O)C1 | 144 | –
26 | Cc1cc(C)cc(Nc2nccc(-n3cc(C)c(CN4CC[C@@H](O)C4)c3)n2)c1 | 2.3 | bioavailability [4]: 7.6%; IC50 [5]: 77 nM; CL/F [6]: 43 mL/min/kg; solubility kinetic [2]: 70 µM (≈ 26.4 µg/mL); Papp [3]: 2 ×10⁻⁶ cm/s; IC50 (Cytochrome P450 3A4): 5100 nM; half-life [7]: 2.6 h; AUC(0-t) [8]: 6240 ng·h/mL; IC50 [9]: 349 nM; Vdss (Rattus norvegicus): 4.3 L/kg
27 | Cc1cn(-c2ccnc(Nc3cc(C)c(OCCO)c(C)c3)n2)cc1CN1CC(O)C1 | 5 | –
28 | Cc1cc(C)cc(Nc2nccc(-n3cc(CN4CC[C@@H](O)C4)c(C4CC4)c3)n2)c1 | 3.7 | –
29 | CCn1ccc2cc(Nc3nccc(-n4cc(CN5CC(O)C5)c(C)n4)n3)ccc21 | 22.8 | –
30 | Cc1cc(C)cc(Nc2nccc(-n3cc(CN4CC[C@@H](O)C4)c(C)n3)n2)c1 | 3.5 | –
31 | Cc1cc(C)cc(Nc2nccc(-n3cc(C)c(CN4CC[C@@H](N)C4)c3)n2)c1 | 13.2 | –
32 | COc1c(C)cc(Nc2nccc(-n3cc(C)c(CN4CC(O)C4)c3)n2)cc1C | 5.7 | bioavailability [4]: 7.8%; CL/F [6]: 70 mL/min/kg; half-life [7]: 1.2 h; AUC(0-t) [8]: 550 ng·h/mL; Vdss (Rattus norvegicus): 5.6 L/kg
33 | CCn1ccc2cc(Nc3nccc(-n4cc(CN5CC(O)C5)c(C5CC5)n4)n3)ccc21 | 9.2 | –
34 | Cc1nn(-c2ccnc(Nc3ccc4c(c3)c(Cl)c(C)n4C)n2)cc1CN1CC[C@@H](O)C1 | – | IC50 [10]: 73400 nM; Papp A→B [11]: 6.2 ×10⁻⁶ cm/s; IC50 [12]: 9590 nM; half-life [13]: > 1 h; Fu (Plasma): < 0.4%; Papp B→A [14]: 7.3 ×10⁻⁶ cm/s; IC50 [9]: 478 nM; IC50 [15]: > 10000 nM
35 | Cc1cc(C)cc(Nc2nccc(-n3cc(CN4CC(O)C4)c(C)n3)n2)c1 | 7.3 | –
